ChEMBL document CHEMBL1909046, “DrugMatrix in vitro pharmacology data”

Columns and labels:
Cytochrome P450 2C19 = Cytochrome P450 2C19 (Homo sapiens, UniProt P33261)
Cytochrome P450 2C9 = Cytochrome P450 2C9 (Homo sapiens, UniProt P11712)
Glycine receptor = Glycine receptor (Rattus norvegicus, UniProt P07727+P20781+P22771+P24524); type: cell membranes, Wistar, Spinal cord, Membrane
Cytochrome P450 2D6 = Cytochrome P450 2D6 (Homo sapiens, UniProt P10635)
Androgen receptor = molecular target: T1, Androgen receptor (Rattus norvegicus, UniProt P15207)
T1 sequence (P15207 whole entry): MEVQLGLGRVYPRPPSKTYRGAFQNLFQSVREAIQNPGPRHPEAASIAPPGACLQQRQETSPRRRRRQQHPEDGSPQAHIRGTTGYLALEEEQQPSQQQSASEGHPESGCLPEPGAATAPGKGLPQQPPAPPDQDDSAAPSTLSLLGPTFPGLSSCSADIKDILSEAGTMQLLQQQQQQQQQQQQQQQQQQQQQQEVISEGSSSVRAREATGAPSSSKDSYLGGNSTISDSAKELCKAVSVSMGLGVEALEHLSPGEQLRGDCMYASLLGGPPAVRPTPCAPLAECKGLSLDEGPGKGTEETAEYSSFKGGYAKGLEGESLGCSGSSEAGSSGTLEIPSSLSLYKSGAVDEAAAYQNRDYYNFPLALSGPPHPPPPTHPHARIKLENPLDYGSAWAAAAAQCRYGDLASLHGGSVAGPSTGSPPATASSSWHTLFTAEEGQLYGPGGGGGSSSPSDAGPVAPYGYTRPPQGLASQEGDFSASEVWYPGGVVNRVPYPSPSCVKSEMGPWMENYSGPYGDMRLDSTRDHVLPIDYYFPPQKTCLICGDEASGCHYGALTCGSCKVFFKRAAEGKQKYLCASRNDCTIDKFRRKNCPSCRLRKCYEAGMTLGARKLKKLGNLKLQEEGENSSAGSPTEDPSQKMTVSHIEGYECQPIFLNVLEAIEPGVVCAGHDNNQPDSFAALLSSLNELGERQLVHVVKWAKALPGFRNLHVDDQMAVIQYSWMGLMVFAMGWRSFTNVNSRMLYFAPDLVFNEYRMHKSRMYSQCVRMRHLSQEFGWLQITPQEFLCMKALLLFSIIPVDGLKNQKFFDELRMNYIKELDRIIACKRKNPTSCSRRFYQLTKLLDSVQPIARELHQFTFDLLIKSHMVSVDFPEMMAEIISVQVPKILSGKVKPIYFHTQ

Cytochrome P450 1A2 = molecular target: T2, Cytochrome P450 1A2 (Homo sapiens, UniProt P05177)
T2 sequence (P05177 whole entry): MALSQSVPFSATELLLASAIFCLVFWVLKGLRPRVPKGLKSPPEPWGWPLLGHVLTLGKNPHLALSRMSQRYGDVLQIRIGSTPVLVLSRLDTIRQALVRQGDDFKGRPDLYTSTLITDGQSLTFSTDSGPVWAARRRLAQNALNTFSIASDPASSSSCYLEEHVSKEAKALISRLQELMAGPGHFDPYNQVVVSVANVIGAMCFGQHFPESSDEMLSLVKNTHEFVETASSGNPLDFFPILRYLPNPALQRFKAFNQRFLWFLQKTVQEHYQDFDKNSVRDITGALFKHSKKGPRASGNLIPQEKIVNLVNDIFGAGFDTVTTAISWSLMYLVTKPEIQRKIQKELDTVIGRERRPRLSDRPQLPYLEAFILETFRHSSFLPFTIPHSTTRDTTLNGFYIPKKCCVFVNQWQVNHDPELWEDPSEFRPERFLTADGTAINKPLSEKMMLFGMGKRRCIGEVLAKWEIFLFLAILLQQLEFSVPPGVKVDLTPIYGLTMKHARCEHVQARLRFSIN

[1] = molecular target: Voltage-gated inwardly rectifying potassium channel KCNH2 (Homo sapiens, UniProt Q12809)
Voltage-gated inwardly rectifying potassium channel KCNH2, sequence (Q12809 whole entry): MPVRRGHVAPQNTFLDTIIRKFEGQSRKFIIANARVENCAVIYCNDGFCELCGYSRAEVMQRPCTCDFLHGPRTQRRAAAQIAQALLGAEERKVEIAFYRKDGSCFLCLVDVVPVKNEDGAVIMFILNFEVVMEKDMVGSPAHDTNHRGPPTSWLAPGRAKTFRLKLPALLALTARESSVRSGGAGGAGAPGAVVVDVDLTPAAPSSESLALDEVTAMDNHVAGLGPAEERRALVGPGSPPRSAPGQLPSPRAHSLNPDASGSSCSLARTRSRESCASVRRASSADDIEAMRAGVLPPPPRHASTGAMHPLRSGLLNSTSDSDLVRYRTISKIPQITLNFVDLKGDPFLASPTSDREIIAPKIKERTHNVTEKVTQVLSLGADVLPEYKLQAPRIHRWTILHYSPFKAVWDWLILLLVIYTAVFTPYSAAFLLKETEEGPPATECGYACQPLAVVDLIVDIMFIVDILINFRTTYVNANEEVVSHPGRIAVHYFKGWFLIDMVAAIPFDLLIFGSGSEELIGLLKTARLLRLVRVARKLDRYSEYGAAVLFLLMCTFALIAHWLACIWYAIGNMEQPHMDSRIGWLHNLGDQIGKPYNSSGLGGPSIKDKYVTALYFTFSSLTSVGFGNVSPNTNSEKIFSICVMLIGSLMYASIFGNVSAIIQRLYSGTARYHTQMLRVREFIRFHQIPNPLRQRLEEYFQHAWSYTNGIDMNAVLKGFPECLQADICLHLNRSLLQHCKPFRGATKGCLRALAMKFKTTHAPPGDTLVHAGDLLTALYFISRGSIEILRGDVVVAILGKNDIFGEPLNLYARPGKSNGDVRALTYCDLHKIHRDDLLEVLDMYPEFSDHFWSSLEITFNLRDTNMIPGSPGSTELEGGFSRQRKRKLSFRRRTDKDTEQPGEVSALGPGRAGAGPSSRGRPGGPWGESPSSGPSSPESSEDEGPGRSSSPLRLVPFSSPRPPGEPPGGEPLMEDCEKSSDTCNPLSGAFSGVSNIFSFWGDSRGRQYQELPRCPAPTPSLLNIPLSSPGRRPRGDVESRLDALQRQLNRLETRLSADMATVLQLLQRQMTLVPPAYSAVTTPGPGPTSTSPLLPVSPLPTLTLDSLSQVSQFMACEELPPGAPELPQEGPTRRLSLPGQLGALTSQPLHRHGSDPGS

Cytochrome P450 2D6, sequence (P10635 whole entry): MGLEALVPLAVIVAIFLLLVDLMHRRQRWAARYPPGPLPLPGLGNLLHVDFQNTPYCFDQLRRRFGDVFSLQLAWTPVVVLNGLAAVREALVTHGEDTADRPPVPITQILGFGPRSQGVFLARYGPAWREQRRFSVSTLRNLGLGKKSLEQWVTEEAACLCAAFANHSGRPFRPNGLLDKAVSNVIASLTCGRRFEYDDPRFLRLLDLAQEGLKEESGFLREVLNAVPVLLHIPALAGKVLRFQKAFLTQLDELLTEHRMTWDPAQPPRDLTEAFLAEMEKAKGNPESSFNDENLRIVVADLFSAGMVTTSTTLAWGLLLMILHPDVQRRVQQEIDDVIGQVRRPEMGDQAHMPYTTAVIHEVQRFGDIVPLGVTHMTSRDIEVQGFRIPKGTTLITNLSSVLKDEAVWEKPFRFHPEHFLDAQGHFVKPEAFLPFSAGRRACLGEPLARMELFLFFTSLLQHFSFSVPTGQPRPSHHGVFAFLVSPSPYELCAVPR
Cytochrome P450 2C19, sequence (P33261 whole entry): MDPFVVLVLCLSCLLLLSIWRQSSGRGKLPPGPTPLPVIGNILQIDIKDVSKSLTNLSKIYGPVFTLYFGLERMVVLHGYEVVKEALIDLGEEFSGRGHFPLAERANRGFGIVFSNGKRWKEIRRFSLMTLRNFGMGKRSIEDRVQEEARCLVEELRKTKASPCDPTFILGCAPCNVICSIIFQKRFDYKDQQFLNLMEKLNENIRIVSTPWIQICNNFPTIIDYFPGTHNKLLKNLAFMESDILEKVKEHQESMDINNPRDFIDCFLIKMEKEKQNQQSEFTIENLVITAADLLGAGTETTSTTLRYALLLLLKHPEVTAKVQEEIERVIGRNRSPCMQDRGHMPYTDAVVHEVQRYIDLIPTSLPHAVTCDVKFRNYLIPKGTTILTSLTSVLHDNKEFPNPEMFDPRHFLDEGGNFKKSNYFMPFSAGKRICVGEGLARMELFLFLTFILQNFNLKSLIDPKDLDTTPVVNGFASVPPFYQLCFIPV
Cytochrome P450 2C9, sequence (P11712 whole entry): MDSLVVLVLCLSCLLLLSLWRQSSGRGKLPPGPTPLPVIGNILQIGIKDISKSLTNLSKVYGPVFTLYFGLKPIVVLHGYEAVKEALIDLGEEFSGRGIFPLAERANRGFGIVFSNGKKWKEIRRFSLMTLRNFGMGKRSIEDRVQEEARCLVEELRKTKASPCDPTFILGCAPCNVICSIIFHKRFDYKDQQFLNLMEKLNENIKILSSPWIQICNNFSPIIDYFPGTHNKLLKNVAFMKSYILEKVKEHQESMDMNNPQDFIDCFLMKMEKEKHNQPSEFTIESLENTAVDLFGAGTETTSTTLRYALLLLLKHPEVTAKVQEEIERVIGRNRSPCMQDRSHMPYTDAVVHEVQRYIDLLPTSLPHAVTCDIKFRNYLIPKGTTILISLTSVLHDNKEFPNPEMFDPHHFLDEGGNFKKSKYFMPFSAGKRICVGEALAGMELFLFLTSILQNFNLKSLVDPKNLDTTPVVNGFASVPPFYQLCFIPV
Glycine receptor, sequence (P22771 whole entry): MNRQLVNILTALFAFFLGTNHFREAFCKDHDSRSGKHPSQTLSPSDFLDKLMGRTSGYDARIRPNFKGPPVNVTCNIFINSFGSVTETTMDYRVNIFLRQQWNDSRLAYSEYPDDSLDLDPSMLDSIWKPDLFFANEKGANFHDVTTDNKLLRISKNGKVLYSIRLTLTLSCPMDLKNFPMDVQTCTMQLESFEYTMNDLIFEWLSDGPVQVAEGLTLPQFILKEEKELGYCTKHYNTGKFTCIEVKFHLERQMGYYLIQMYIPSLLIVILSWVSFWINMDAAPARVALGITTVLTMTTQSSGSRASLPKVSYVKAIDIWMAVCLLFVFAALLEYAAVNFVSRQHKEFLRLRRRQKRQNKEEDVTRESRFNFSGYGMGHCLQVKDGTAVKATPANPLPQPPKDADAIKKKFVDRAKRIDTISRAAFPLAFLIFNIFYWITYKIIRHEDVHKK
Glycine receptor, sequence (P24524 whole entry): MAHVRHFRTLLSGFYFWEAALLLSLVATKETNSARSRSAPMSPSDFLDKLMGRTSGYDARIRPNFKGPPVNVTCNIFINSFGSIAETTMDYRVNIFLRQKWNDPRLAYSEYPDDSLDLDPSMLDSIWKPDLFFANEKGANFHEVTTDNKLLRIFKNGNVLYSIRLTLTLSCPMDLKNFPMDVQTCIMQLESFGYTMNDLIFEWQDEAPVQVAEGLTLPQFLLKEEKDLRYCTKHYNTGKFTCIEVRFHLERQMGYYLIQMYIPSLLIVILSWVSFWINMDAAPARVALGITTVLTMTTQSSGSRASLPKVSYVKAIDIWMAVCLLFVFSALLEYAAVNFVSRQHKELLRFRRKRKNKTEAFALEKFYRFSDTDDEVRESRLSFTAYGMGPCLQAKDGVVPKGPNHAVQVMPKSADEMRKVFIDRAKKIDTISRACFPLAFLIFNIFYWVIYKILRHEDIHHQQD
Glycine receptor, sequence (P07727 whole entry): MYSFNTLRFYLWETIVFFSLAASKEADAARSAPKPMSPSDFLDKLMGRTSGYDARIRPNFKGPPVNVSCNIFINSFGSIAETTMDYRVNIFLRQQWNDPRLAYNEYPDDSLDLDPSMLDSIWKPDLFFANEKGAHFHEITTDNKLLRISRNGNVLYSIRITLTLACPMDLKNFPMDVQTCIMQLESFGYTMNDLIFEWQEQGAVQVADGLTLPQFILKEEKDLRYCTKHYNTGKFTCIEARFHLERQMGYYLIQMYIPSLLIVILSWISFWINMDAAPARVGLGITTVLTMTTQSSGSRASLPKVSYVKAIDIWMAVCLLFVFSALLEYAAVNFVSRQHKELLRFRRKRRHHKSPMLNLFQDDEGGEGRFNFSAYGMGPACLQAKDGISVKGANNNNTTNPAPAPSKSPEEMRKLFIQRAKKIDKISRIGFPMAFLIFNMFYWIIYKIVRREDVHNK
Glycine receptor, sequence (P20781 whole entry): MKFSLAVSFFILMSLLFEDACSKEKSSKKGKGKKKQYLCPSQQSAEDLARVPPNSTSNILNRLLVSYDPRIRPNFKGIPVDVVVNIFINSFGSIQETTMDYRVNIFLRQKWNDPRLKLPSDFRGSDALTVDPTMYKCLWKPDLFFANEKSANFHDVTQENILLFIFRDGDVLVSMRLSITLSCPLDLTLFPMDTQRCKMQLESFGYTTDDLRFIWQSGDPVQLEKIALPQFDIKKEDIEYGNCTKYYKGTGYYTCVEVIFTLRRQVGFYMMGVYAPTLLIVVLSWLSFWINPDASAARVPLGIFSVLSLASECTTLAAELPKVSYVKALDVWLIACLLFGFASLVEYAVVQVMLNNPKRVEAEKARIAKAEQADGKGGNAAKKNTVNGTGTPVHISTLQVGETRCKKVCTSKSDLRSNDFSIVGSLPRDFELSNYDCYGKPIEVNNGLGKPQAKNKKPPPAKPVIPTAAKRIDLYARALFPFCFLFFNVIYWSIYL

`O=C(c1ccccc1C(F)(F)F)N1CCC(Cc2ccccc2)CC1` was tested, and the IC50 (Cytochrome P450 2C19) was 0.4 µM and the IC50 (Cytochrome P450 2C9) was 2 µM.

`CC[C@H](C)[C@H]1O[C@]2(C=C[C@@H]1C)C[C@@H]1C[C@@H](C/C=C(\C)[C@@H](O[C@H]3C[C@H](OC)[C@@H](O[C@H]4C[C@H](OC)[C@@H](O)[C@H](C)O4)[C@H](C)O3)[C@@H](C)/C=C/C=C3\CO[C@@H]4[C@H](O)C(C)=C[C@@H](C(=O)O1)[C@]34O)O2.CO[C@H]1C[C@H](O[C@H]2[C@H](C)O[C@@H](O[C@@H]3/C(C)=C/C[C@@H]4C[C@@H](C[C@]5(C=C[C@H](C)[C@@H](C(C)C)O5)O4)OC(=O)[C@@H]4C=C(C)[C@@H](O)[C@H]5OC/C(=C\C=C\[C@@H]3C)[C@]54O)C[C@@H]2OC)O[C@@H](C)[C@@H]1O` [ABAMECTIN] showed an IC50 (Glycine receptor) of 0.132 µM and a Ki (Glycine receptor) of 0.075 µM.

Compound `COc1ccc2cc3[n+](cc2c1OC)CCc1cc2c(cc1-3)OCO2.[Cl-]` [BERBERINE CHLORIDE] has an IC50 (Cytochrome P450 2D6) of 4.5 µM.

Work on `CC(=O)Oc1ccc(C(c2ccc(OC(C)=O)cc2)c2ccccn2)cc1` [BISACODYL] yielded an IC50 (Cytochrome P450 2C9) of 10 µM.

`Cc1cc2c(OCC(CNC(C)(C)C)OC(=O)c3ccccc3)cccc2[nH]1` (stereo unspecified) [BOPINDOLOL] showed an IC50 (Cytochrome P450 2D6) of 5.48 µM.

`CCC(=O)O[C@]1(C(=O)CCl)[C@@H](C)C[C@H]2[C@@H]3CCC4=CC(=O)C=C[C@]4(C)[C@@]3(F)[C@@H](O)C[C@@]21C` [CLOBETASOL PROPIONATE] showed an IC50 (Androgen receptor) of 3.78 µM and a Ki (Androgen receptor) of 2.52 µM.

`OC(CCCN1CCCCC1)(c1ccccc1)c1ccccc1` [DIPHENIDOL] was tested, and the IC50 (Cytochrome P450 2D6) was 0.326 µM.

Compound `Oc1c(Cl)cc(Cl)c(Cl)c1Cc1c(O)c(Cl)cc(Cl)c1Cl` [HEXACHLOROPHENE] has an IC50 (Cytochrome P450 2C19) of 1.23 µM, an IC50 (Androgen receptor) of 4.98 µM and a Ki (Androgen receptor) of 3.32 µM. For the same compound, the IC50 (Cytochrome P450 1A2) was 1.31 µM.

In the case of `COC1=C(OC)C(=O)C(CCCCCCCCCCO)=C(C)C1=O` [IDEBENONE], the IC50 (Cytochrome P450 2C19) is reported as 0.8 µM, the IC50 (Cytochrome P450 2D6) is reported as 3 µM and the IC50 (Cytochrome P450 2C9) is reported as 5 µM.

Compound `Cc1c(OCC(F)(F)F)ccnc1C[S+]([O-])c1nc2ccccc2[nH]1` (stereo unspecified) [LANSOPRAZOLE] has an IC50 (Cytochrome P450 2C19) of 0.337 µM and an IC50 (Cytochrome P450 2D6) of 5.31 µM.

With `O=c1cc(N2CCOCC2)oc2c(-c3ccccc3)cccc12` [LY-294002] the IC50 (Cytochrome P450 1A2) was 1 µM.

In the case of `CCN(CC)CCOCCC1=CCC2CC1C2(C)C` (stereo unspecified) [MYRTECAINE], the IC50 [1] is reported as 5.9 µM and the Ki [1] is reported as 4.84 µM.

With `O=C(N/N=C/c1ccc([N+](=O)[O-])o1)c1cc([N+](=O)[O-])cc([N+](=O)[O-])c1O` [NIFURSOL] the IC50 (Cytochrome P450 2C19) was 5 µM and the IC50 (Cytochrome P450 2C9) was 7 µM.

In the case of `COc1cc2nc(N3CCN(C(=O)c4ccco4)CC3)nc(N)c2cc1OC` [PRAZOSIN], the IC50 [1] is reported as 24.3 µM and the Ki [1] is reported as 19.9 µM.
